Read-outs that look alike come from different tables or passages of the source.
How the values were obtained:
[1] = Ramkumar and Nagarajan, 2014; cited from earlier work
[2] = test system: Human mammary cancer MCF-7 cells; assay: Cytotoxicity in MCF-7 cells (72 h treatment, Hoechst 33342 staining, IN Cell Analyzer imaging); assay type: cell-based
Procedure: (§1) Human mammary cancer MCF-7 cells were maintained under standard conditions using Dulbecco's Modified Eagle Medium Nutrient Mixture F12 (DMEM-F12, GIBCO #12400-024) accompanied by 10% fetal calf serum (FCS, Atlanta Biologicals #S 11550). Cells were cultured to 80% confluency before being lifted with 0.05% Trypsin/EDTA (GIBCO #1404912) for 2 minutes, spun and resuspended in new media.
(§2) MCF7 cells were seeded at a density of 10,000 cells per well in 96 well plates (BD Falcon #353220). Cells were grown for 24 h, washed in phosphate-buffered saline (PBS, Life Technologies #14080-055), media was then replaced with DMEM-F12 at 5% FCS. At this time Ellipticine, including Aza-Ellipticine compounds, were added from a treatment plate (3 μL per condition) for a total volume of 150 μL (final concentrations of 0.1, 1, 3, 10 μM) and were incubated under standard conditions for an additional 72 h.
(§3) After 72 h of treatment with drugs, cells were fixed by adding 50 μL of 10% Buffered Formalin Phosphate and stained with 2 μM Hoechst 33342 (AnaSpec #83218) stock (20000×) to media for 1 h. Images were then captured with the IN Cell Analyzer 2000 (GE Healthcare UK Ltd., Buckinghamshire, UK).

[3] = as above; assay type: cell-based, Human; settings: human
Procedure: as §1, §2, §3

| SMILES | EC50 at 72 h [3] [µM] | other results |
| --- | --- | --- |
| Cc1c2ccncc2c(C)c2c1[nH]c1ccc(O)cc12 [9-Hydroxy ellipticine, reference compound] | – | potency compared with parent ellipticine [1]: forty times more potent than its parent; EC50 ([2]; MCF-7 cells, 72 h treatment, 5% FCS, concentrations 0.1, 1, 3, 10 μM): 0.9 µM |
| c1ccc2c(c1)[nH]c1nc3cnccc3cc12 [Example 2, 10H-indolo[2,3-b][1,7]naphthyridine] | 6 | – |
| COc1ccc2[nH]c3nc4cccnc4c(C)c3c2c1 [Example 7, 9-methoxy-11-methyl-6H-indolo[2,3-b][1,5]naphthyridine] | 14 | – |
| CCCn1c2ccc(OC)cc2c2cc3ncccc3nc21 [Example 8, 9-methoxy-6-propyl-6H-indolo[2,3-b][1,5]naphthyridine] | 13.3 | – |
| COc1ccc2[nH]c3nc4cccnc4cc3c2c1 [Example 12, 9-methoxy-6H-indolo[2,3-b][1,5]naphthyridine] | 0.8 | – |
| COc1ccc2[nH]c3nc4cnccc4cc3c2c1 [Example 13, 7-methoxy-10H-indolo[2,3-b][1,7]naphthyridine] | 17 | – |
| Oc1ccc2[nH]c3nc4cccnc4cc3c2c1 [Example 14, 6H-indolo[2,3-b][1,5]naphthyridin-9-ol] | 5 | – |
| COc1cccc2c1[nH]c1nc3cccnc3cc12 [Example 15, 7-methoxy-6H-indolo[2,3-b][1,5]naphthyridine] | – | Cytotoxicity, EC50 (result in words) [2]: No effect |
| Cc1ccc2[nH]c3nc4cccnc4cc3c2c1 [Example 17, 9-methyl-6H-indolo[2,3-b][1,5]naphthyridine] | 0.9 | – |
| CCCCc1c2ncccc2nc2[nH]c3ccc(OC)cc3c12 [Example 18, 11-butyl-9-methoxy-6H-indolo[2,3-b][1,5]naphthyridine] | 1 | – |
| CC(=O)Oc1ccc2c(c1)c1cc3ncccc3nc1n2C(C)=O [Example 19, 6-acetyl-6H-indolo[2,3-b][1,5]naphthyridin-9-yl acetate] | 1 | – |
| Cc1c2ccncc2c(C)c2c1[nH]c1ccccc12 [ellipticine] | – | EC50 at 72 h ([3]; MCF-7 cells, 72 h treatment, 5% FCS, concentrations 0.1, 1, 3, 10 μM, read-out: Cytotoxicity, EC50): 1 µM |

— patent publication US10456400B2, “Aza-ellipticine analogs, methods of synthesis and methods of treatment” (MUSC FOUNDATION FOR RESEARCH DEVELOPMENT, priority 2014, dated 2019)
